Results: patent publication US20180186769A1, “6-AMINO-5-FLUORO-5-(FLUOROMETHYL)-2,3,4,5-TETRAHYDROPYRIDIN-2-YL-PHENYL-5-(METHOXY-D3)-PYRAZINE-2-CARBOXAMIDES AND FLUORINATED DERIVATIVES THEREOF AS BACE1 INHIBITORS” (H. Lundbeck A/S, priority 2016, published 2018)
Where two headings read alike, the source gives them in different places.

Columns and labels:
[1] = Clearance in microsomes, dog; assay type: in vitro ADME; details: 1 microM, read-out: CLint, Dog (L/h/kg) ± SD (converted)
Text: (§1) Deuterated compounds were compared to their non-deuterated parent counterparts to determine the impact of deuteration on clearance results

[2] = Clearance in microsomes, cyno; assay type: in vitro ADME; details: cynomolgus monkey, 1 microM, read-out: CLint, Cyno (L/h/kg) ± SD (converted)
Text: as §1

[3] = Bioanalysis of brain and plasma samples (UPLC-MS/MS); assay type: in vivo, Sprague Dawley rats; details: male, po, rat, p.o.; for Kp at 0.5 h / Kp at 1 h / Kp at 3 h / Kp at 6 h / Kp at 12 h: read-out: Brain/Plasma ratio
Experimental: Young adult Male Sprague Dawley rats of approximately 250 g weight were purchased from Charles River and received vehicle (2.5% HP betaCD+1M MeSO4, pH 2.5) or 0-40 mg/kg of test compounds (dissolved in vehicle) by oral gavage (p.o). The compounds are dosed at a volume of 5 ml/kg. Cohorts of 5-10 animals were established for each treatment condition.
Studies were set up as acute dose response treatment studies were samples were taken at T=180 minutes after initial dosing, or as 12 h or 24 h timecourse treatment studies. At the end of the test period, the animals were stunned and decapitated with a guillotine. Trunk-blood was sampled in EDTA coated tubes after decapitation of the animal. The blood was centrifuged at 2200G at 4° C. for 15 minutes and the plasma was collected and frozen at −80° C. The blood was aliquoted for Aβ ELISA and DMPK analysis. Immediately following sacrifice, the brain was extracted and split into 2 halves. The left half was dissected; with the front forebrain taken for Aβ ELISA and the remainder used for DMPK analysis. These samples were also snap frozen on dry ice and stored at −80° C. until use for analysis. The right hemibrains were snap frozen on dry ice and stored at −80° C. for independent confirmatory Aβ ELISA evalution.
TC was determined in plasma and brain homogenate using UltraPerformance LC® (UPLC®) chromatography followed by tandem-MS (MS/MS) detection.
Brain homogenate was prepared by homogenizing the brain 1:4 (v/v) with water:2-propanol:DMSO (50:30:20 v/v/v) followed by centrifugation and collection of the supernatant. Calibration standards and QC samples were prepared using a Hamilton robot. 150 μL of ISTD in acetonitrile (1 ng/mL ISTD) was added to 25 μL of calibration standards, QC samples and test samples (plasma and brain homogenate) using a Biomek robot. After centrifugation (6200 g, 4° C., 20 min) 100 μL supernatant from each sample was transferred to a new plate and mixed with 100 μL water with 0.1% formic acid using a Biomek robot (method file InVivo transfer). After a quick centrifugation (6200 g, 4° C., 5 min) the samples were placed in the auto-sampler.
MS/MS detection was done with an Applied Biosystems Sciex API 4000 instrument in positive-ion electrospray ionisation mode. TC and ISTD were detected at a parent>daughter mass to charge ratio (m/z). Nitrogen was used for the nebulizer and collision gases. The peak area correlated linearly with the plasma and brain concentration of the analytes in the range of 1.00-1000 ng/mL plasma and 5.00-5000 ng/g brain (corrected for dilution). If the plasma/brain sample drug concentration was above 1000 ng/mL or 5000 ng/g, the sample was diluted appropriately in blank plasma/blank brain homogenate before analysis.

[4] = biological target: BACE1 (Homo sapiens, UniProt P56817); assay: BACE1 efficacy assay (FRET-based); assay type: biochemical; design: purchased Life Technologies P2985; details: 10 μM test compound
BACE1, sequence (P56817 46-501): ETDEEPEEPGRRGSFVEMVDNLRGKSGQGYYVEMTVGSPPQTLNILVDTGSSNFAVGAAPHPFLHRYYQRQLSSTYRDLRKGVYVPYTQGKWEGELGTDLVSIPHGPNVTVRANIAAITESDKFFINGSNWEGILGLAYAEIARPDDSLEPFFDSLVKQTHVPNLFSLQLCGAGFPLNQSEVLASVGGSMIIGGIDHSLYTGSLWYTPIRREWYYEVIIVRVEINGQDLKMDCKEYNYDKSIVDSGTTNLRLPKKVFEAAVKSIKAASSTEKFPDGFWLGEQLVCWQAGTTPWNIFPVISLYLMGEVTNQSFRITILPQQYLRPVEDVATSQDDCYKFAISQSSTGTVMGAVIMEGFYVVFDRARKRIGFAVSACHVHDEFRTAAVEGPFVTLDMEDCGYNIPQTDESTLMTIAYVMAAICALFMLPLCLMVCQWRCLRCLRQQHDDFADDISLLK
Experimental: The efficacy assay was performed as a FRET-based assay using a commercially available BACE1 kit (Life Technologies, P2985). 2 μl test compound at 10 μM (final concentration) and 15 μl BACE1 enzyme from the kit (final concentration 3 nM) were preincubated for 15 minutes at room temperature before addition of 15 μl of substrate from the kit (250 nM final concentration) and incubated for additional 90 minutes at room temperature. The assay plate was subsequently read in a Pherastar (Ex540/Em590). The enzyme activity observed in presence of test compound were normalized to the enzyme activity observed in presence of buffer and 10 μM (final concentration) of the high affinity BACE1 reference inhibitor (S)-6-[3-Chloro-5-(5-prop-1-ynyl-pyridin-3-yl)-thiophen-2-yl]-2-imino-3,6-dimethyl-tetrahydropyrimidin-4-one, respectively. The efficacy of the test compounds was evaluated at 10 μM (final concentration) and defined as the percent inhibition of the enzyme activity using the equation % inhibition=100%−normalized enzyme activity in percent.

[5] = Sprague Dawley, brain and plasma, 10 mg/kg
[6] = Sprague Dawley, brain, 10 mg/kg, read-out: Mean rat brain conc.
[7] = Sprague Dawley, plasma, 10 mg/kg, read-out: Mean rat plasma conc.
[8] = Sprague-Dawley, brain, 20 mg/kg, read-out: Mean rat brain conc.
[9] = Sprague-Dawley, brain, 40 mg/kg, read-out: Mean rat brain conc.
[10] = Sprague-Dawley, brain/plasma, 20 mg/kg
[11] = Sprague-Dawley, brain/plasma, 40 mg/kg
[12] = Sprague-Dawley, plasma, 20 mg/kg, read-out: Mean rat plasma conc.
[13] = Sprague-Dawley, plasma, 40 mg/kg, read-out: Mean rat plasma conc.

CLint scaled at 1 µM [1]: 5 L/h/kg | CLint scaled at 1 µM [2]: 10 L/h/kg | Kp at 0.5 h [3, 5]: 1.8 | Kp at 1 h [3, 5]: 2.3 | Kp at 3 h [3, 5]: 2.1 | Kp at 6 h [3, 5]: 1.9 | Kp at 12 h [3, 5]: 1.7 | concentration at 0.5 h [3, 6]: 550 ng/g | concentration at 1 h [3, 6]: 1100 ng/g | concentration at 3 h [3, 6]: 700 ng/g | concentration at 6 h [3, 6]: 430 ng/g | concentration at 12 h [3, 6]: 140 ng/g | concentration at 0.5 h [3, 7]: 300 ng/mL | concentration at 1 h [3, 7]: 500 ng/mL | concentration at 3 h [3, 7]: 340 ng/mL | concentration at 6 h [3, 7]: 230 ng/mL | concentration at 12 h [3, 7]: 79 ng/mL | concentration at 0.5 h [3, 8]: 1530 ng/g | concentration at 1 h [3, 8]: 2380 ng/g | concentration at 3 h [3, 8]: 1960 ng/g | concentration at 6 h [3, 8]: 1540 ng/g | concentration at 12 h [3, 8]: 438 ng/g | concentration at 0.5 h [3, 9]: 2500 ng/g | concentration at 1 h [3, 9]: 2800 ng/g | concentration at 3 h [3, 9]: 3000 ng/g | concentration at 6 h [3, 9]: 3700 ng/g | concentration at 12 h [3, 9]: 1100 ng/g | Kp at 0.5 h [3, 10]: 2.9 | Kp at 1 h [3, 10]: 3.9 | Kp at 3 h [3, 10]: 3.4 | Kp at 6 h [3, 10]: 3.2 | Kp at 12 h [3, 10]: 2.7 | Kp at 0.5 h [3, 11]: 2.8 | Kp at 1 h [3, 11]: 3.1 | Kp at 3 h [3, 11]: 2.8 | Kp at 6 h [3, 11]: 3 | Kp at 12 h [3, 11]: 2.5 | concentration at 0.5 h [3, 12]: 532 ng/mL | concentration at 1 h [3, 12]: 614 ng/mL | concentration at 3 h [3, 12]: 572 ng/mL | concentration at 6 h [3, 12]: 477 ng/mL | concentration at 12 h [3, 12]: 159 ng/mL | concentration at 0.5 h [3, 13]: 740 ng/mL | concentration at 1 h [3, 13]: 880 ng/mL | concentration at 3 h [3, 13]: 1100 ng/mL | concentration at 6 h [3, 13]: 1200 ng/mL | concentration at 12 h [3, 13]: 410 ng/mL | inhibition at 10 µM [4]: 100%
SMILES: [2H]C([2H])([2H])Oc1cnc(C(=O)Nc2ccc(F)c([C@]3(C)CC[C@@](F)(CF)C(N)=N3)c2)cn1 [Example 1, N-(3-((2S,5S)-6-amino-5-fluoro-5-(fluoromethyl)-2-methyl-2,3,4,5-tetrahydropyridin-2-yl)-4-fluorophenyl)-5-(methoxy-d3)pyrazine-2-carboxamide]
